Among the data in BindingDB's records for doi:10.1021/jm00371a008 (1984) are Ki values, retold here.

For the test, the target named is Folylpolyglutamate synthase (Mus musculus). The test is described as follows: Compound was evaluated for the binding affinity to mouse liver folyl polyglutamate synthetase.

One may read the Ki as a measure of affinity in units of concentration, obtained from inhibition or displacement. A higher Ki goes with weaker binding. For `Nc1nc(N)c2nc(CNc3ccc(C(=O)NC(CS(=O)(=O)O)C(=O)O)cc3)cnc2n1` (centres undefined) [2-{4-[(2,4-Diamino-pteridin-6-ylmethyl)-amino]-benzoylamino}-3-sulfo-propionic acid], the affinity corresponds to a Ki of 43 µM.

Turning to `CN(Cc1cnc2nc(N)nc(N)c2n1)c1ccc(C(=O)NC(CS(=O)(=O)O)C(=O)O)cc1` (centres undefined) [2-{4-[(2,4-Diamino-pteridin-6-ylmethyl)-methyl-amino]-benzoylamino}-3-sulfo-propionic acid], the affinity corresponds to a Ki of 136 µM. In the case of `Nc1nc(N)c2nc(CNc3ccc(C(=O)NC(CCS(=O)(=O)O)C(=O)O)cc3)cnc2n1` (centres undefined) [2-{4-[(2,4-Diamino-pteridin-6-ylmethyl)-amino]-benzoylamino}-4-sulfo-butyric acid] it was 59 µM; in that of `CN(Cc1cnc2nc(N)nc(N)c2n1)c1ccc(C(=O)NC(CCS(=O)(=O)O)C(=O)O)cc1` (centres undefined) [2-{4-[(2,4-Diamino-pteridin-6-ylmethyl)-methyl-amino]-benzoylamino}-4-sulfo-butyric acid], 198 µM.
